# Columns and labels:
# Assay in all cases: CA Inhibition Assay
# Conditions in all cases: pH 7.5; 25 °C
# [1] = biological target: Carbonic anhydrase 1 (Homo sapiens, UniProt P00915)
# [2] = biological target: Carbonic anhydrase 2 (Homo sapiens, UniProt P00918)
# [3] = biological target: Carbonic anhydrase 6 (Homo sapiens, UniProt P23280)
# Sequence of Carbonic anhydrase 6 (P23280 whole entry): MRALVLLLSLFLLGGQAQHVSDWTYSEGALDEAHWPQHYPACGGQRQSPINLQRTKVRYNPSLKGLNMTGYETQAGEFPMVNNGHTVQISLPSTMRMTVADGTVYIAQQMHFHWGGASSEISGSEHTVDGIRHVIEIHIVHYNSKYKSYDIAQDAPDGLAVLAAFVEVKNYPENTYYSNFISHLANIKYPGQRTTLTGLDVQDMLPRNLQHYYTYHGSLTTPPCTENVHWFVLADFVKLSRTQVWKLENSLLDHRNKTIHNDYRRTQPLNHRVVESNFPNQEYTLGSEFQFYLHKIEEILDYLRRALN
# Sequence of Carbonic anhydrase 1 (P00915 whole entry): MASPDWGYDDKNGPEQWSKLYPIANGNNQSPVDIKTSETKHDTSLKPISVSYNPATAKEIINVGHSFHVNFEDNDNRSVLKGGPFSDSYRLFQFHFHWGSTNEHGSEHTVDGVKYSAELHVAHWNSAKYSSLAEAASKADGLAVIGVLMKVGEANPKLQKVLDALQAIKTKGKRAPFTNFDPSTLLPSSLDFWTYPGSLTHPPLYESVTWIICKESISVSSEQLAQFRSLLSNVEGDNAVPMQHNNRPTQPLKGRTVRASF
Compound,Ki [1] [nM],Ki [2] [nM],Ki [3] [nM]
"Cc1c(CCO)sc[n+]1C [CA inhibitor, 1]",2270,784,593
"Cc1c(CCO)sc[n+]1Cc1ccccc1 [CA inhibitor, 2]",1150,105,128
Cc1ncc(C[n+]2csc(CCO)c2C)c(N)n1 [Vitamin B 1],380,85,62
